Source: PubChem BioAssay (NCI)
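Following 48 hours of exposure in 96-well plates, responses at five concentrations were used to interpolate endpoints linearly. The concentration for 50% growth inhibition is given as GI50. The concentration for full growth arrest is given as TGI.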

How the values were obtained:
Test in all cases: NCI anticancer screen, dose series, 48 h
A549 NSCLC = system: A549 NSCLC
ACHN renal = system: ACHN renal
MCF7 breast = system: MCF7 breast
SF-539 CNS = system: SF-539 CNS
RXF 393 renal = system: RXF 393 renal
SN12C renal = system: SN12C renal
NCI-H226 lung = system: NCI-H226 lung
NCI-H460 lung = system: NCI-H460 lung
EKVX NSCLC = system: EKVX NSCLC
SK-OV-3 ovarian = system: SK-OV-3 ovarian
SNB-78 CNS = system: SNB-78 CNS

SMILES	TGI (A549 NSCLC) [µM]	TGI (ACHN renal) [µM]	TGI (MCF7 breast) [µM]	TGI (SF-539 CNS) [µM]	TGI (RXF 393 renal) [µM]	TGI (SN12C renal) [µM]	TGI (NCI-H226 lung) [µM]	TGI (NCI-H460 lung) [µM]	TGI (EKVX NSCLC) [µM]	TGI (SK-OV-3 ovarian) [µM]	TGI (SNB-78 CNS) [µM]	GI50 (A549 NSCLC) [µM]	GI50 (ACHN renal) [µM]	GI50 (MCF7 breast) [µM]	GI50 (RXF 393 renal) [µM]	GI50 (SN12C renal) [µM]	GI50 (NCI-H226 lung) [µM]	GI50 (NCI-H460 lung) [µM]	GI50 (EKVX NSCLC) [µM]	GI50 (SK-OV-3 ovarian) [µM]
Nc1ccc(N=Nc2ccccc2)cc1	> 100	> 100	> 100	> 100	> 100	> 100	> 100	> 100	> 100	> 100	–	–	–	–	–	–	–	–	–	–
COc1ccc(O)cc1	> 100	> 100	–	> 100	> 100	> 100	> 100	> 100	> 100	> 100	> 100	–	–	–	–	–	–	–	–	–
NC1=NS(=O)(=O)Nc2nc(-c3ccc(Cl)cc3)c(-c3ccc(Cl)cc3)nc21	> 100	> 100	–	> 100	> 100	> 100	–	> 100	–	–	> 100	–	–	–	–	–	–	–	–	–
COc1ccc(/C(Cl)=C(\C=O)c2ccc(F)cc2)cc1OC	–	58.6	–	59	–	77.1	47.2	43	65.4	77.2	62.5	–	–	–	–	–	–	–	–	–
NC1=NS(=O)(=O)Nc2nc(-c3ccc([N+](=O)[O-])o3)[nH]c21	> 100	30.5	–	31.6	25.5	36.4	–	44	–	–	–	–	–	–	–	–	–	–	–	–
Nc1ccc2[nH]c3c(-c4ccccc4)nccc3c2c1	> 100	–	> 100	> 100	> 96.5	> 100	> 86.1	> 100	> 100	> 100	> 100	–	–	–	–	–	–	–	–	–
O=C(NC(Cc1ccc(I)cc1)C(=O)O)c1ccc(Br)cc1 (stereo unspecified)	> 100	–	> 100	> 100	> 100	> 100	> 100	> 100	31	> 100	> 100	–	–	–	–	–	–	–	–	–
N=C(N)c1ccc(N=Nc2c(O)ccc3c2[nH]c2ccccc23)cc1	–	86.4	–	> 100	> 100	> 83.4	> 90.6	–	> 100	79.9	–	–	–	–	–	–	–	–	–	–
COC(=O)C1=C(C(=O)OC)SC2(S1)C1=C(CCCC1)SC(C(=O)OC)=C2C(=O)OC	31.1	18.4	8.43	4.27	6.91	14.6	–	15.7	26.6	28.1	–	–	–	–	–	–	–	–	–	–
C[C@]12CCc3nc(Nc4ccccc4)sc3C1=CC[C@@H]1[C@@H]2CC[C@]2(C)/C(=N/NC(N)=S)CC[C@@H]12	> 100	> 100	> 100	–	5.09	> 100	5.71	> 100	> 100	> 100	–	8.5	3.67	1.08	2.18	3.52	2.07	6.14	19.2	82.7
CCOC(=O)/C1=C(\C)N(c2ccc(C)cc2)C(=O)c2ccccc2C(=O)c2c(OC(C)=O)ccc(OC(C)=O)c21	> 100	77.2	97.7	69.1	92.9	50.5	65.7	47.8	–	70.9	–	–	–	–	–	–	–	–	–	–
COc1cc(Nc2c3ccccc3nc3ccccc23)ccc1NS(C)(=O)=O	12.3	14.8	–	15.6	–	9.32	23.5	12	23.1	30.8	47.1	–	–	–	–	–	–	–	–	–
Cc1ccc(S(=O)(=O)OCC(=O)O)cc1	> 100	> 100	–	–	> 100	> 100	–	> 100	> 100	–	–	–	–	–	–	–	–	–	–	–
NC1=NS(=O)(=O)Nc2nc(-c3ccc([N+](=O)[O-])cc3)[nH]c21	> 100	> 100	–	> 100	> 100	> 100	–	> 100	–	> 100	–	–	–	–	–	–	–	–	–	–
